Test results from patent publication US20200325183A1, “NS2B AS MARKER FOR ZIKA VIRUS INFECTIONS” (priority 2017, published 2020).
Ends that are not written are not given here.

Columns and labels:
Assay type in all cases: binding, human
[1] = tested on: IgM antibodies in Zika acute and convalescent plasma samples; assay: Full substitution scan peptide microarray, IgM; conditions: data not shown
Excerpt: In a second screening round of the second study, microarrays with peptide substitution scans of linear WT peptide […] (SEQ ID NO. 9) and cyclic WT peptide KDAEVTGNS (SEQ ID NO. 10) were used to determine essential, conserved and less-conserved/variable amino acid positions and to identify stronger responding peptide variants. Each amino acid position in the WT sequence was systematically exchanged by all 20 physiologic amino acids, and the resulting linear and cyclic peptides and peptide variants were printed in triplicate on the peptide substitution scan microarrays. The immunoreactivity of the peptide variants was tested by incubation with Zika acute and convalescent plasma samples. The assays were carried out in a multiplexed format with fluorescently labeled secondary anti-human IgG and anti-human IgM antibodies to simultaneously analyze the IgG and IgM profiles of each sample.
A substitution analysis was performed with the WT peptide […] (SEQ ID No. 9) and cyclic peptide KDAEVTGNS (SEQ ID NO. 10) to determine essential, conserved and less-conserved/variable amino acid positions and to identify stronger reacting peptide variants.
Each amino acid position in the WT sequence was systematically exchanged by all 20 physiologic amino acids, and the resulting peptides and peptide variants were printed in triplicate on peptide microarrays. […]

[2] = tested on: IgG antibodies in sera of Zika acute and Zika convalescent patients; assay: Chemiluminescence peptide ELISA; conditions: serum dilution 1:1000, Zika acute and convalescent patient sera
Description: The cyclic peptides and WT peptide were tested by a chemiluminescence ELISA using sera of Zika acute and Zika convalescent patients. A healthy control (HC) sera was included. The ELISA assays were performed under stringent conditions, that is at high serum dilutions (1:1000) to better evaluate the diagnostic potential of the peptide marker. The ELISA results are given in chemiluminescence units (CLUs). Samples were considered as positive, if the CLU of a respective sera is >=2 times over HC value.
For ELISA tests, four cyclic peptides with a Biotin tag preceding the C-terminal cysteine residue were synthesized. The non-cyclic WT peptide (“WT peptide”) was synthesized with a C-terminal Biotin tag at the C-terminus, the amino acid sequence was identical to SEQ ID NO. 9.
Peptide ELISA-Tests were performed on Streptavidin functionalized 96 well microtiterplates (Lumitrac, Greiner BioOne, Germany). The plates were coated with the respective biotinylated peptides with a biotin tag positioned at the C-terminus, preceding the C-terminal cysteine. The plates were incubated overnight at 4° C. with test sera at a dilution of 1:1000 (v/v) in PBST/10% Rockland (PBST=Phosphate buffered saline pH 7.2, 0.05% Tween 20). […] The chemiluminescence was measured after 10 minutes at 425 nm using an automated plate reader (CLARIOstar®. BMG LABTECH GmbH, Germany). […]

[3] = tested on: IgG antibodies in sera of Zika patients; assay: Peptide microarray IgG screening, first study (ZIKV proteome / NS1, NS2a, NS2b arrays)
Excerpt: In a first study, the inventors characterized the antibody profiles of Zika patients in a systematic manner. Therefore, they translated the proteomes of 15 different ZIKV strains (taken from the NCBI database, see Table 1 below) in the form of overlapping peptides as high-density peptide arrays and used 84 different patient and control sera to screen several thousands of potential antigens for pathogen induced antibodies.
In addition, the inventors investigated the time-dependent antibody variation in patients (acute vs. convalescent stage). They screened patient sera from their collaboration partner in Brazil with different peptide arrays, containing the whole proteome of the ZIKV (first screening round). […] Almost no signals could be observed in control samples. […]
In the first study, sera were diluted 1:1000 in PBS buffer with 0.05% Tween 20 pH 7.4 (PBST) and 10% blocking buffer, incubating the sera for 16 h at 4° C. and 50 RPM orbital shaking. […] Image analysis and quantification was performed with the PepSlide Analyzer software (Sicasys Software GmbH, Heidelberg, Germany).
Samples used for the peptide array experiments of the first study were collected from individuals with acute febrile illnesses enrolled in a prospective cohort study from May 2015 to April 2016. […] For molecular viral diagnosis, quantitative real-time PCR (qRT-PCR) for Dengue (DENV) and Zika (ZIKV) viruses was performed. […]

[4] = tested on: IgG antibodies in plasma of Zika virus patients; assay: Proteome-wide Zika virus peptide microarray, second study, IgG; conditions: plasma 1:250, acute and convalescent samples
Excerpt: (§1) In a second more extended study, the inventors further characterized the IgG and IgM antibody profiles of Zika patients in a more comprehensive manner Therefore, they translated the proteomes of 19 Zika virus strains taken from sequencing data from Nicaragua, Colombia, Guatemala, Honduras, Mexico and Panama 100 additional Zika virus proteomes from the USA with a higher sequence heterogeneity into 4,356 different overlapping Zika virus peptides printed in duplicate on high-density peptide arrays for a high-resolution proteome-wide epitope screening.
(§2) The inventors used plasma of 100 Zika virus patients with a confirmed dengue virus naïve status in the acute and convalescent phase (200 samples), plasma of 50 Zika virus patients with a confirmed dengue virus positive status in the acute and convalescent phase (100 samples), 50 plasma samples of dengue virus patients in the convalescent phase taken before the Zika virus outbreak as disease control and plasma of 25 individuals with a confirmed dengue virus and Zika virus negative status as healthy controls. […] The multiplexed IgG and IgM analysis was enabled by highly specific fluorescently labeled anti-human IgG and anti-human IgM secondary antibodies with different fluorescence wavelengths for emission and detection. […]

[5] = tested on: IgM antibodies in plasma of Zika virus patients; assay: Proteome-wide Zika virus peptide microarray, second study, IgM; conditions: plasma 1:250, acute and convalescent samples
Excerpt: as §1, §2

| Substance | IgM reactivity in substitution scan [1] | IgG reactivity in chemiluminescence ELISA (positive if CLU >=2 times over HC value) [2] | IgG antibody reactivity of Zika patients against the whole ZIKV proteome ([3]; first screening round, arrays with whole proteome content, sera 1:1000) | IgG antibody reactivity, specific arrays with NS1, NS2a, NS2b content ([3]; second screening round) | IgG response, proteome-wide microarray [4] | IgM response, proteome-wide microarray [5] |
| --- | --- | --- | --- | --- | --- | --- |
| WEKDAEVTGNSPRLD [WT peptide] | not a single human sample exhibited any specific IgM reactivity | detected Zika specific antibody responses in acute patient sera as well as in convalescent patient sera |  |  |  |  |
| NS2b: Zika virus non-structural protein NS2b, cofactor of NS3 protease, displayed as overlapping 15-mer peptides on arrays |  |  | most prominent interaction | clear signals | specific IgG responses | no specific IgM response |
| KDAEVTGNS (also: cyclic) [SEQ ID NO. 10, cyclic WT peptide on substitution scan microarrays] | not a single human sample exhibited any specific IgM reactivity |  |  |  |  |  |
